The values below come from US4309425A (priority 1980, dated 1982).

One assay concerns Erisyphe cichoracearum. The assay can be described thus: cucumber powdery mildew curative test. The assay is classed as in vivo. The settings on record: Cucumis sativus, 144 h, sprayed day after inoculation, additional 6 days. The text has this:
Cucumber plants are inoculated with a spore suspension of the fungus Erisyphe cichoracearum and in a growth room overnight. The following day, the plants are sprayed to the point of run-off with a suspension prepared by dissolving compounds of this invention in acetone in an amount equal to 6% of the final volume and then suspended at a concentration of 20 ppm in purified water containing 25 ppm of the surfactant Alkanol® XC (sodium alkyl naphthalene sulfonate). Plants are returned to the growth room for an additional 6 days when disease ratings are then made. […] Phytotoxicity in the form of foliar burn or growth reduction was observed on some of the plants in association with disease control.

The test system of assay [1] is Venturia inaequalis. The assay can be described thus: apple scab residual wash-off test. Particulars: 1/2 inch simulated rainfall, 10-12 days. In kind it is in vivo. The procedure: Compounds of this invention are dissolved in acetone in an amount equal to 6% of the final volume and then suspended at a concentration of 20 ppm in purified water containing 25 ppm of the surfactant Alkanol® XC (sodium alkyl naphthalene sulfonate). This suspension is sprayed to the point of run-off on apple seedlings. The following day, 1/2 inch of simulated rainfall is applied to the foliage of the plants. When the foliage is dry, the plants are inoculated with a spore suspension of the fungus Venturia inaequalis and incubated in a growth room for 10-12 days. Disease ratings are then made. […] Phytotoxicity in the form of foliar burn was observed on the plants in association with disease control.

Assay [2] has as its system Puccinia graminis var. tritici. The assay can be described thus: whole plant or invertebrate. The assay is classed as in vivo. Particulars: 192 h, read-out: % control wheat rust in residual wash-off test.
The next assay relates to Rhizoctonia solani. The assay can be described thus: Rhizoctonia solani infested soil test, cotton. The assay is classed as in vivo. The settings on record: 192 h, 1.5 kg/ha, 8 days. An excerpt: Rhizoctonia solani-infested soil was placed in a 900 cc cup. Compounds of this invention were mixed at a rate of 1.5 kg/ha in a section 2" wide×2" deep×4" long to simulate an in-the-row application. Five cotton seeds were planted in the treated soil. After 8 days, the cotton plants were removed and rated for disease control.

For assay [3], the system named is Puccinia graminis var. tritici. The assay can be described thus: whole plant or invertebrate. The settings on record: 192 h, read-out: % control wheat rust in preventive test. The assay is classed as in vivo.
A further assay relates to Sclerotinia sclerotiorum. The assay can be described thus: white mold on carrot sections dip test. Particulars: 100 ppm dip, 20° C., six days. The protocol: Surface-sterilized carrot sections were dipped two minutes in a 100 ppm solution of the compounds of this invention. Additional sections were dipped in a check solution which contained 500 ppm Alkanol® XC (sodium alkyl naphthalene sulfonate). After inoculation by placing a mycelial plug of Sclerotinia sclerotiorum on each carrot section, the test was held at 20° C. for six days.
The untreated carrot sections were completely invaded with the mycelial growth of white mold fungus, but the treated sections had little or no growth by this disease causing organism.

The subject of assay [4] is Erysiphe cichoracearum. The assay can be described thus: cucumber powdery mildew preventive test. The assay is classed as in vivo. The settings on record: Golovinomyces cichoracearum, 168 h, 7 days. The procedure: Compounds of this invention are dissolved in acetone in an amount equal to 6% of the final volume and then suspended at a concentration of 20 ppm in purified water containing 25 ppm of the surfactant Alkanol® XC (sodium alkyl naphthalene sulfonate). This suspension is sprayed to the point of run-off on cucumber seedlings. The following day, the plants are inoculated with a spore suspension of the fungus Erysiphe cichoracearum and incubated in a growth room for 7 days. Disease ratings are then made. […] Phytotoxicity in the form of foliar burn or growth reduction was observed on some of the plants in association with disease control.

In the next assay the test system is Phytophthora infestans. The assay can be described thus: whole plant or invertebrate. The assay is classed as in vivo. Particulars: in Solanum lycopersicum, 96 h, read-out: % control tomato late blight in a photostability test.
The subject of assay [5] is Puccinia graminis var. tritici. The assay can be described thus: whole plant or invertebrate. In kind it is in vivo. Particulars: 192 h, read-out: % control wheat rust in a photostability test.
Assay [6] deals with Erysiphe cichoracearum. The assay can be described thus: cucumber powdery mildew photostability test. The assay is classed as in vivo. The settings on record: Golovinomyces cichoracearum, 168 h, xenon arc 3500 foot candles 16 hours, 7 days. The protocol:
(§1) Compounds of this invention are dissolved in acetone in an amount equal to 6% of the final volume and then suspended at a concentration of 20 ppm in purified water containing 25 ppm of the surfactant Alkanol® XC (sodium alkyl naphthalene sulfonate). This suspension is sprayed to the point of run-off in cucumber seedlings. When the foliage is dry, the plants are exposed to 3500 foot candles of light from a xenon arc source for a period of 16 hours. This light source approximates the spectrum of natural sunlight, and is used to assess photostability of the compounds of this invention on plant foliage. The following day, the plants are inoculated with a spore suspension of the fungus Erysiphe cichoracearum and incubated in a growth room for 7 days. Disease ratings are then made.

Assay [7] relates to Erysiphe cichoracearum. The assay can be described thus: cucumber powdery mildew residual wash-off test. The assay is classed as in vivo. The settings on record: Golovinomyces cichoracearum, 168 h, 1/2 inch simulated rainfall, 7 days. The procedure:
Compounds of this invention are dissolved in acetone in an amount equal to 6% of the final volume and then suspended at a concentration of 20 ppm in purified water containing 25 ppm of the surfactant Alkanol® XC (sodium alkyl naphthalene sulfonate). This suspension is sprayed to the point of run-off on cucumber seedlings. The following day, 1/2 inch of simulated rainfall is applied to the foliage of the plants. When the foliage is dry, the plants are inoculated with a spore suspension on the fungus Erysiphe cichoracearum and incubated in a growth room for 7 days. Disease ratings are then made.

The test system of assay [8] is Venturia inaequalis. The assay can be described thus: apple scab photostability test. In kind it is in vivo. Particulars: xenon arc 3500 foot candles 16 hours, 10-12 days. The procedure:
as §1, with “on apple” for “in cucumber”, “Venturia inaequalis” for “Erysiphe cichoracearum”, “10-12” for “7”, “made. […] Phytotoxicity in the form of foliar burn was observed on some of the plants in association with disease control.” for “made.”

For assay [9], the system named is Eggs of the beet armyworm (Spodoptera exigua). The assay can be described thus: beet armyworm egg (ovicidal) test, % eggs failing to hatch. The assay is classed as in vivo. Particulars: 72 h, three days, read-out: % Control (% eggs failing to hatch); for mortality at 1 %: 1% in acetone. The procedure:
Eggs of the beet armyworm (Spodoptera exigua), laid on cellophane discs each containing 50-75 eggs, were placed in petri dishes and lightly sprayed with 1% concentrations of the indicated compounds in acetone solution. Three days later, percent control (% eggs failing to hatch) was determined.
Eggs of the beet armyworm (Spodoptera exigua), laid on cellophane discs each containing 50-75 eggs, were placed in petri dishes and lightly sprayed with 200 ppm concentration of the indicated compounds in acetone solution. Three days later, percent control (% eggs failing to hatch) was determined.

Read-outs that look alike come from different tables or passages of the source.

Regarding `CCCCN(SN(c1cc(C(F)(F)F)ccc1Cl)c1c([N+](=O)[O-])cc([N+](=O)[O-])cc1C(F)(F)F)S(=O)(=O)c1ccccc1C`, the pest or weed control at 20 ppm was 93% with Erisyphe cichoracearum; 100% in the assay with Venturia inaequalis [1]; 100% in assay [2]; 100% in [3]; 100% in the assay with Erysiphe cichoracearum [4]; 90% in the assay on Phytophthora infestans. Moreover, the pest or weed control at 20 ppm in assay [5] is 98%; in the assay with Erysiphe cichoracearum [6], 100%; with Erysiphe cichoracearum [7], 100%; in the assay on Venturia inaequalis [8], 80%. The compound further returned a pest or weed control at 1500 g/ha with Rhizoctonia solani of 50%. In addition, the “% control White Mold” value in the assay on Sclerotinia sclerotiorum was determined as 100%. The mortality at 1 % in [9] turned out to be 100%.
As to `Cc1ccc(S(=O)(=O)N(C)SN(c2cc(C(F)(F)F)ccc2Cl)c2c([N+](=O)[O-])cc([N+](=O)[O-])cc2C(F)(F)F)cc1`, the pest or weed control at 20 ppm with Erisyphe cichoracearum is 100%; in the assay with Venturia inaequalis [1], 100%; in assay [2], 100%; in [3], 80%; in the assay with Erysiphe cichoracearum [4], 100%; in the assay on Phytophthora infestans it was 50%. In addition, the pest or weed control at 20 ppm was 40% in assay [5], 0% in the assay on Erysiphe cichoracearum [6], 92% in the assay on Erysiphe cichoracearum [7] and 100% in the assay with Venturia inaequalis [8]. Further, the pest or weed control at 1500 g/ha with Rhizoctonia solani worked out at 100%. Moreover, the “% control White Mold” value in the assay on Sclerotinia sclerotiorum is given as 100%. Moreover, the mortality at 1 % in [9] worked out at 100%.
In the case of `CCCCN(SN(c1cc(C(F)(F)F)ccc1Cl)c1c([N+](=O)[O-])cc([N+](=O)[O-])cc1C(F)(F)F)S(=O)(=O)c1ccc(C)cc1`, the pest or weed control at 20 ppm was 92% with Erisyphe cichoracearum; 100% with Venturia inaequalis [1]; 100% in [2]; 100% in [3]; 100% with Erysiphe cichoracearum [4]; 95% in the assay with Phytophthora infestans. Moreover, the pest or weed control at 20 ppm in assay [5] was 100%; with Erysiphe cichoracearum [6], 75%; in the assay on Erysiphe cichoracearum [7], 100%; with Venturia inaequalis [8] it was 0%. In the assay on Rhizoctonia solani, the pest or weed control at 1500 g/ha worked out at 100%. Further, the “% control White Mold” value in the assay with Sclerotinia sclerotiorum came to 86%. The mortality at 200 ppm in [9] (200 ppm in acetone) amounted to 100%.
